This note sets out measurements from patent publication US5001118A, “Method for preventing senescence and increasing bone mass” (priority 1986, dated 1991).

The subject of one test is osteoporosis. Nature of the test: Activity on bones found by the inventors (general statement).
The test system of another test is rats. Nature of the test: Lifelong administration to rats (general statement on bone). The format is in vivo, rat. The source says: One aspect of the present invention has been perfected based on the above findings. […] These findings are literally epochal in the light of the fact that the conventional pharmaceutical compositions for adjusting bone metabolism is found to be only capable of restoring bones having abnormality due to morbidity near to normality.

[1] abbreviates: lifelong administration to rats.

On to `C=C1CC[C@H](O)C/C1=C/C=C1\CCC[C@]2(C)[C@@H]([C@H](C)CCC(O)C(C)(C)O)CC[C@@H]12` (stereo partly shown) [24,25-(OH)2 -D3, 24,25-dihydroxy cholecalciferol], for which, in the test with osteoporosis, the activity on osteoporosis result is recorded as “activity of preventing osteoporosis”. In addition, in the test with rats (setting [1]), the bone quality entry is given as “without affecting the bone quality” and the bone volume entry was “increasing bone volume”. The “bone strength vs non-administered normal mammals” value with rats (normal mammal, extension of the lifelong rat experiment) is given as “clearly surpassing the average bone strength of non-administered normal mammals”.
